The values that follow come from paper PMC10582583, “The novel cyclophilin inhibitor C105SR reduces hepatic ischaemia–reperfusion injury via mitoprotection” (JHEP Reports, 2023).

One experiment concerns the target CypD (Homo sapiens, UniProt P30405). The experiment is described as follows: CypD PPIase activity, chymotrypsin-coupled assay. The format is biochemical. The conditions noted are these: Table 1.
Experiment [1] relates to isolated mouse liver mitochondria. The experiment is described as follows: Calcium retention capacity (CRC) assay in isolated liver mitochondria. The format is biochemical. To be noted: for EC50: isolated mouse liver mitochondria; for maximal mitochondrial CRC, diastereoisomer vs racemic mixture: Fig. 2E; for maximal mitochondrial CRC: compound at 100 μM (Fig. 1C), basal 160 ± 8.

Experiment [2] shares this test system. Nature of the experiment: Ca2+-induced mitochondrial swelling assay. It counts as biochemical. The conditions noted are these: energised isolated mouse liver mitochondria.
Experiment [3] concerns AML-12 cells. Nature of the experiment: mPTP opening, CoCl2-calcein AM fluorescence-quenching assay, hypoxia/reoxygenation. It counts as cell-based, mouse. The conditions noted are these: for prevention of mPTP opening (loss of calcein fluorescence): 1 μM, 4 h hypoxia, 1 h reoxygenation. On the procedure: We next evaluated the ability of compounds C105SR and C110SR to inhibit mPTP opening in cells. The hepatocyte cell line AML-12 was subjected to 4 h of hypoxia followed by 1 h of reoxygenation and mPTP opening was monitored using the CoCl2-calcein-acetoxymethyl ester (AM) fluorescence-quenching method.[19] Calcein-AM is a membrane permeable fluorophore which passively diffuses in all subcellular compartments including mitochondria. In the cell, the AM group of the fluorophore is cleaved by ubiquitous intracellular esterases, generating a hydrophilic product that is retained within the cell. The cells are then loaded with the divalent cobalt cation (Co^2+), which quenches calcein fluorescence in all subcellular compartments except the mitochondrial matrix, because the inner mitochondrial membrane is impermeable to cobalt. However, when mPTP is open, cobalt enters mitochondria and quenches mitochondrial calcein fluorescence. […]
(§1) Hypoxia/reoxygenation (H/R) in vitro model. AML-12 mouse hepatocyte line was obtained from American Type Culture Collection (ATCC) and maintained in DMEM/F12 culture medium at 37°C with 5% CO2. HepaRG human hepatocyte line was obtained from American Type Culture Collection (ATCC) and maintained in William’S E culture medium at 37°C with 5% CO2.When indicated, cells were incubated in phosphate buffered saline at 37°C in a hypoxic chamber filled with 94% N2, 1% O2, 5% CO2 for 4 h to mimic ischemic conditions. Then, cells were transferred to a CO2 incubator at 37°C in regular DMEM/F12 culture medium for 1 or 2 h under normoxic conditions (74% N2, 21% O2, 5% CO2). SMCypIs or vehicle (DMSO) were added during the hypoxia period, during the reoxygenation period, or during both. CsA and ALV were used as positive controls for hepatic protection against H/R injury.
Monitoring of mPTP opening. mPTP opening was monitored in AML-12 cells using the CoCl2-calcein AM fluorescence-quenching assay. Cells were loaded with 1 µM calcein-AM (green) for 20 min. Then, 1 mM CoCl2 was added and cells were incubated for another 10 min. Cells were washed and subjected to 4 h of hypoxia followed by 1 h of reoxygenation. Calcein fluorescence was measured using a spectrofluorimeter at excitation and emission wavelengths of 485 nm and 535 nm, respectively. Images were acquired using a standard inverted fluorescence microscope (Zeiss Axio, […]
media during the entire H/R period. Images shown are representative images of 12-18 images. […]
Optical density of purple formazan product was measured at 550 nm. […]

Experiment [4] relates to AML-12 cells. The experiment is described as follows: LDH release, hypoxia/reoxygenation. The format is cell-based, mouse. The conditions noted are these: 0.5 μM. The method, then: As expected, cells subjected to hypoxia/reoxygenation were characterised by greater LDH release and reduced cell viability as compared to untreated controls (Fig. 4A and 4B). […]
as §1, with “injury. […]” for “injury.”
Cell viability assays. Lactate dehydrogenase (LDH) release in culture medium was assessed using the commercially non-radioactive CytoTox-96 kit (Promega, Madison, Wisconsin) following the manufacturer’s instructions. Briefly, cell culture media were collected and the LDH activity was determined by measuring absorbance at 491 nm with a spectrometer (Multiskan skyHigh). For 3-(4,5-dimethylthiazol-2-yl)-2,5-diphenyltetrazolium bromide (MTT) assay, cells were incubated with a solution of MTT (0.5 mg/mL) for 2 h at 37°C. The medium was then removed and 50 µL DMSO was added to each well. Optical density of purple formazan product was measured at 550 nm. Cell viability was expressed as a percentage of the untreated control.
(LDH leaks from cells whose membrane has failed.)

SMILES strings stand for the structures.

Sequence of CypD (P30405 30-207): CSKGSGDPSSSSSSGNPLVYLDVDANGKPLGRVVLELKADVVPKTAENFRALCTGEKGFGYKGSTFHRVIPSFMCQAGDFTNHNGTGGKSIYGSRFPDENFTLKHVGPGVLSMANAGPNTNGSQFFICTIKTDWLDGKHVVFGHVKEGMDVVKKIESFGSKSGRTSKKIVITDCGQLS

One may read the IC50 as the concentration that inhibits the measured activity by half. High values mean weaker potency in that assay, low ones greater potency in that assay. The compound `CSc1ccccc1C1CCCN1C(=O)C(NC(=O)NCc1cccc2ccsc12)c1ccccc1` (stereo not shown) [Compound C142, 1-(benzo[b]thiophen-7-ylmethyl)-3-(2-(2-(2-(methylthio)phenyl)pyrrolidin-1-yl)-2-oxo-1-phenylethyl)urea] came in with an IC50 at CypD of 420 ± 100 nM.

Take `CCNC(=O)N1CCCc2c(CNC(=O)NC(C(=O)N3CCCC3c3ccccc3SC)c3ccccc3)cccc21` (stereo not shown) [Compound C177, N-ethyl-5-((3-(2-(2-(2-(methylthio)phenyl)pyrrolidin-1-yl)-2-oxo-1-phenylethyl)ureido)methyl)-3,4-dihydroquinoline-1(2H)-carboxamide]: half-maximal inhibition at CypD (IC50) was put at 490 ± 320 nM. On to `CSc1ccccc1C1CCCN1C(=O)C(NC(=O)NCc1cccc2c1OCCO2)c1ccccc1` (stereo not shown) [Compound C129, 1-((2,3-dihydrobenzo[b][1,4]dioxin-5-yl)methyl)-3-(2-(2-(2-(methylthio)phenyl)pyrrolidin-1-yl)-2-oxo-1-phenylethyl)urea], for which the IC50 on CypD was found to be 260 ± 70 nM.

With `CSc1ccccc1C1CCCN1C(=O)C(NC(=O)NCc1ccc(N)cc1)C1CCCCC1` (stereo not shown) [Compound C71, 1-(4-aminobenzyl)-3-(1-cyclohexyl-2-(2-(2-(methylthio)phenyl)pyrrolidin-1-yl)-2-oxoethyl)urea], at CypD, the IC50 turned out to be 790 ± 210 nM. The same measure, in the same setting: the same measure for `COc1cc(OC)c(C(NC(=O)NCc2ccc(N)cc2)C(=O)N2CCCC2c2cccc3ccsc23)cc1Br` (stereo not shown) [Compound C112, 1-(4-aminobenzyl)-3-(2-(2-(benzo[b]thiophen-7-yl)pyrrolidin-1-yl)-1-(5-bromo-2,4-dimethoxyphenyl)-2-oxoethyl)urea]: 480 ± 40 nM. A word on the EC50: it is the concentration at which the effect is half-maximal. Turning to `CSc1ccccc1C1CCCN1C(=O)C(NC(=O)NCc1ccc(N)cc1)c1ccccc1` (stereo not shown) [Compound C31], the IC50 against CypD came out at 200 ± 100 nM; in experiment [2], 1300 ± 50 nM. The EC50 in experiment [1] was 9090 ± 210 nM. Besides, the “inhibition of mPTP opening” value with AML-12 cells [3] (0.5 μM) is recorded as “not effective”. In addition, the “inhibition of cell death” value in the experiment on AML-12 cells [4] was “not effective”. At CypD, `CSc1ccccc1C1CCCN1C(=O)C(NC(=O)NCc1cccc2[nH]ncc12)c1ccccc1` (stereo not shown) [Compound C178, 1-((1H-indazol-4-yl)methyl)-3-(2-(2-(2-(methylthio)phenyl)pyrrolidin-1-yl)-2-oxo-1-phenylethyl)urea] displayed a 50% inhibitory concentration (IC50) of 400 ± 190 nM.

For the compound `CSc1ccccc1C1CCCN1C(=O)C(NC(=O)NCc1cccc2[nH]ccc12)c1ccccc1` (stereo not shown) [Compound C172, 1-((1H-indol-4-yl)methyl)-3-(2-(2-(2-(methylthio)phenyl)pyrrolidin-1-yl)-2-oxo-1-phenylethyl)urea], at CypD, half-maximal inhibition (IC50) required 210 ± 70 nM. Still for that read-out and setting: the same measure for `COc1ccc(OC)c(C(NC(=O)NCc2cccc3[nH]ncc23)C(=O)N2CCCC2c2ccccc2SC)c1` (stereo not shown) [Compound C171, 1-((1H-indazol-4-yl)methyl)-3-(1-(2,5-dimethoxyphenyl)-2-(2-(2-(methylthio)phenyl)pyrrolidin-1-yl)-2-oxoethyl)urea]: 340 ± 130 nM; for `CSc1ccccc1C1CCCN1C(=O)C(NC(=O)NCC1CC2(CNC2)C1)c1ccccc1` (stereo not shown) [Compound C119, 1-((2-azaspiro[3.3]heptan-6-yl)methyl)-3-(2-(2-(2-(methylthio)phenyl)pyrrolidin-1-yl)-2-oxo-1-phenylethyl)urea]: 150 ± 30 nM.

With `COc1ccc(Br)cc1C(NC(=O)NCc1ccc(N)cc1)C(=O)N1CCCC1c1cccc2ccsc12` (stereo not shown) [Compound C110, 1-(4-aminobenzyl)-3-(2-(2-(benzo[b]thiophen-7-yl)pyrrolidin-1-yl)-1-(5-bromo-2-methoxyphenyl)-2-oxoethyl)urea], at CypD, the IC50 amounted to 100 ± 20 nM. For the same compound, in experiment [1], the “maximal mitochondrial CRC, diastereoisomer vs racemic mixture” value is given as 400 ± 27 nmol Ca2+/mg of mitochondrial; the “maximal mitochondrial CRC” value is 400 ± 27 nmol Ca2+/mg of mitochondrial; the EC50 stood at 2830 ± 90 nM. For the same compound, the IC50 in experiment [2] worked out at 370 ± 6 nM. In the experiment with AML-12 cells [3], the “prevention of mPTP opening (loss of calcein fluorescence)” value is given as “not”. Compound `CSc1ccccc1C1CCCN1C(=O)C(NC(=O)NN1Cc2ccc(N)cc2C1)c1ccccc1` (stereo not shown) [Compound C185, 1-(5-aminoisoindolin-2-yl)-3-(2-(2-(2-(methylthio)phenyl)pyrrolidin-1-yl)-2-oxo-1-phenylethyl)urea] yielded an IC50 against CypD of 590 ± 190 nM. With `COc1ccc(Br)cc1C(NC(=O)NCc1ccc2c(c1)CCCN2)C(=O)N1CCCC1c1cccc2ccsc12` (stereo not shown) [Compound C105, 1-(2-(2-(benzo[b]thiophen-7-yl)pyrrolidin-1-yl)-1-(5-bromo-2-methoxyphenyl)-2-oxoethyl)-3-((1,2,3,4-tetrahydroquinolin-6-yl)methyl)urea], in experiment [1], the “maximal mitochondrial CRC, diastereoisomer vs racemic mixture” value is 407 ± 13 nmol Ca2+/mg of mitochondrial; the “maximal mitochondrial CRC” value was 407 ± 13 nmol Ca2+/mg of mitochondrial; the EC50 came to 2370 ± 110 nM. For the same compound, in experiment [2], half-maximal inhibition (IC50) was put at 690 ± 50 nM. In addition, in the experiment on AML-12 cells [3], the “prevention of mPTP opening (loss of calcein fluorescence)” value is on record as “not”. As for `COc1ccc(OC)c(C(NC(=O)NCc2cccc3[nH]ccc23)C(=O)N2CCCC2c2ccccc2SC)c1` (stereo not shown) [Compound C170, 1-((1H-indol-4-yl)methyl)-3-(1-(2,5-dimethoxyphenyl)-2-(2-(2-(methylthio)phenyl)pyrrolidin-1-yl)-2-oxoethyl)urea], the IC50 against CypD came to 1050 ± 720 nM. Compound `CSc1ccccc1C1CCCN1C(=O)C(NC(=O)NC(C)c1ccc(N)c(F)c1)c1ccccc1` (stereo not shown) [Compound C101, 1-(1-(4-amino-3-fluorophenyl)ethyl)-3-(2-(2-(2-(methylthio)phenyl)pyrrolidin-1-yl)-2-oxo-1-phenylethyl)urea] had an IC50 against CypD of 400 ± 190 nM. Still for that read-out and setting: the same measure for `COc1ccc(OC)c(C(NC(=O)NCc2ccc(N)cc2)C(=O)N2CCCC2c2cccc3ccsc23)c1` (stereo not shown) [Compound C108, 1-(4-aminobenzyl)-3-(2-(2-(benzo[b]thiophen-7-yl)pyrrolidin-1-yl)-1-(2,5-dimethoxyphenyl)-2-oxoethyl)urea]: 480 ± 230 nM. The same measure, in the same setting: the same measure for `COc1ccc(Br)cc1C(NC(=O)NC(C)c1ccc(N)c(F)c1)C(=O)N1CCCC1c1ccccc1SC` (stereo not shown) [Compound C123, 1-(1-(4-amino-3-fluorophenyl)ethyl)-3-(1-(5-bromo-2-methoxyphenyl)-2-(2-(2-(methylthio)phenyl)pyrrolidin-1-yl)-2-oxoethyl)urea]: 1260 ± 370 nM. For the compound `CSc1ccccc1C1CCCN1C(=O)C(NC(=O)NCc1cccc2c1CCN2)c1ccccc1` (stereo not shown) [Compound C144, 1-(indolin-4-ylmethyl)-3-(2-(2-(2-(methylthio)phenyl)pyrrolidin-1-yl)-2-oxo-1-phenylethyl)urea], on CypD, the IC50 is 310 ± 160 nM. Also, in experiment [1], the “maximal mitochondrial CRC” value is reported as 422 ± 44 nmol Ca2+/mg of mitochondrial and the EC50 was 11760 ± 10 nM. The compound also showed an IC50 in experiment [2] of 11570 ± 10 nM.
